Test results: article PMC2649009 (Journal of medicinal chemistry, 2008)

Biological target: T1, human GIVA cPLA2 (Homo sapiens, UniProt P47712)
T1 sequence (P47712 1-749): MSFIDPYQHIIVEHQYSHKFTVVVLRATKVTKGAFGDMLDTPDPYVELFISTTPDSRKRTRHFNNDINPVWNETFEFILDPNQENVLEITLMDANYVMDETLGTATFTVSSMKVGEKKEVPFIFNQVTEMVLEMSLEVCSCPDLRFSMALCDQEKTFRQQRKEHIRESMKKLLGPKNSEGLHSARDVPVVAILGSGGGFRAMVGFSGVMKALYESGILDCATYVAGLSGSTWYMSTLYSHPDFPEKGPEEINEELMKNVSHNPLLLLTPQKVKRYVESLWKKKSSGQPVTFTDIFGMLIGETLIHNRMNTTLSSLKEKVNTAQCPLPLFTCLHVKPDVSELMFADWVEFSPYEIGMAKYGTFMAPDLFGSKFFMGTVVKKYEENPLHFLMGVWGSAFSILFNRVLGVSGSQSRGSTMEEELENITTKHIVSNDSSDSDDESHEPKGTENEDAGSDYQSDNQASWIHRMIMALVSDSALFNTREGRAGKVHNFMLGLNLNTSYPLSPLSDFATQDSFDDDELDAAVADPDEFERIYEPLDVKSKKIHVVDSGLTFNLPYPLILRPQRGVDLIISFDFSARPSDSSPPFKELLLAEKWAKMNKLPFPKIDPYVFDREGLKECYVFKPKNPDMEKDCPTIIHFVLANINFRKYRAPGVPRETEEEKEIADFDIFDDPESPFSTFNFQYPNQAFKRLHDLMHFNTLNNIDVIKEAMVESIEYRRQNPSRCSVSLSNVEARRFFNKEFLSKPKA
Test: mixed micelle-based modified Dole assay, GIVA cPLA2 inhibition
Format: biochemical
Settings: mole fraction of inhibitor in total substrate interface giving 50% inhibition

| Structure (SMILES) | GIVA cPLA2 XI(50) [mole fraction] |
| --- | --- |
| CCCCCCCCCCCCCCCC(=O)C(F)(F)F [compound 6, palmitoyl trifluoromethyl ketone, reference compound] | 0.0223 |
| CCCCCCCCCCCCCCC(F)C(=O)C(F)(F)F (centres unmarked) [compound 26, 1,1,1,3-Tetrafluoro-heptadecan-2-one] | 0.0167 |
